For the experiment, the target named is T1, human GHSR1a (Homo sapiens, UniProt Q92847).
T1 construct: expressed in transfected cells
T1 sequence (Q92847 whole entry): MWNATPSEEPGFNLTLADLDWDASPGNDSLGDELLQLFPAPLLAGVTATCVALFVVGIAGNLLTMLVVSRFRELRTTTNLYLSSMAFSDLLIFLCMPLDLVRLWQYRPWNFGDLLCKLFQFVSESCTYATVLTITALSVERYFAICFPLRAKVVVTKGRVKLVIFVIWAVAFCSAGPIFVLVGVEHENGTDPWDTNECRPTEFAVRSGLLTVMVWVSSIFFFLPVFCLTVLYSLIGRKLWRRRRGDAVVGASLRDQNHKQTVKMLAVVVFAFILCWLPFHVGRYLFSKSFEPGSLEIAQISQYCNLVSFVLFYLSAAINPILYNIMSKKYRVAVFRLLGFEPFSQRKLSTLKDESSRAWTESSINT
Description: Aequorin luminescent functional assay (intracellular Ca2+, ghrelin-stimulated). The note with it: stable cell line expressing human GHSR1a and apoaequorin; final ghrelin 3x EC50 (20 nM); read-out: Class (based on IC50 values). Here is the method:
IC50 values of inventive compounds may be assessed as follows. An aequorin (Euroscreen) luminescent assay (Stabels et al., 1997) measuring the intracellular Ca^2+ concentration was used as the functional assay to evaluate the potency of the compounds. A stable cell line, expressing human GHSR1a and apoaequorin in mitochondria was used in the aequorin assay. 5×10^6 cells per mL were incubated at room temperature in HyClone Media (Perbio) supplemented with 2 μM coelenterazine (Molecular Probes). After 2 hrs cells were diluted to 1×10^6 cells per ml in HyClone Medium.
50 μL of the cell suspension was added to each well of a 96-well plate containing 50 μL of compound, diluted in HyClone Medium. The cell suspension/compound mixture was incubated for 30 seconds before 50 μL of a 9× EC50 concentrations of a human ghrelin solution, in HyClone Medium, was injected. The final Ghrelin concentration was 3× EC50 (20 nM). Aequorin luminescence elicited by intracellular Ca^2+ in the cells was recorded for a total of 60 seconds with a microplate luminometer (Microlumate, Berthold). IC50 of the compounds in this assay was calculated with Prism 4.
As to `CC(C)C(c1cccc(CN(C)C)c1)N1CC(=O)Nc2ccc(Oc3ccc(F)cc3F)cc2C1=O` (stereo not shown) [7-(2,4-difluoro-phenoxy)-4-[1-(3-dimethylaminomethyl-phenyl)-2-methyl-propyl]-3,4-dihydro-1H-benzo[e][1,4]diazepine-2,5-dione], the IC50 was at most 0.01 µM.

Turning to `CC(C)C(C(=O)OC1CCN(Cc2ccccc2)CC1)N1CC(=O)Nc2ccc(Oc3ccccc3)cc2C1=O` (stereo not shown) [2-(2,5-dioxo-7-phenoxy-1,2,3,5-tetrahydrobenzo[e][1,4]diazepin-4-yl)-3-methyl-butyric acid 1-benzyl-piperidin-4-yl ester], the IC50 lay within 0.01 to 0.05 µM.

Turning to `Cc1cccc(C)c1Oc1ccc2c(c1)C(=O)N(C(C(=O)N1CCC(NCc3ccc(F)cc3)CC1)C(C)C)CC(=O)N2` (stereo not shown) [7-(2,6-dimethyl-phenoxy)-4-{1-[4-(4-fluoro-benzylamino)-piperidine-1-carbonyl]-2-methyl-propyl}-3,4-dihydro-1H-benzo[e][1,4]diazepine-2,5-dione], the IC50 is at most 0.01 µM.

Consider `CC(C)C(COC(=O)C1CCN(Cc2ccccc2)CC1)N1CC(=O)Nc2ccc(Oc3ccc(F)cc3)cc2C1=O` (stereo not shown) [1-benzyl-piperidine-4-carboxylic acid 2-[7-(4-fluoro-phenoxy)-2,5-dioxo-1,2,3,5-tetrahydro-benzo[e][1,4]diazepin-4-yl]-3-methyl-butyl ester], for which the IC50 is 0.01 to 0.05 µM.

For the compound `CCc1ccccc1Oc1ccc2c(c1)C(=O)N(C(C(=O)N1CCC(NC3CC3)CC1)C(C)C)CC(=O)N2` (stereo not shown) [4-[1-(4-cyclopropylamino-piperidine-1-carbonyl)-2-methyl-propyl]-7-(2-ethyl-phenoxy)-3,4-dihydro-1H-benzo[e][1,4]diazepine-2,5-dione], the IC50 lay within 0.01 to 0.05 µM.

Turning to `CC(C)C(COC(=O)NC1CCN(Cc2ccccc2)CC1)N1CC(=O)Nc2ccc(Oc3ccc(F)cc3)cc2C1=O` (stereo not shown) [(1-benzyl-piperidin-4-yl)-carbamic acid 2-[7-(4-fluoro-phenoxy)-2,5-dioxo-1,2,3,5-tetrahydro-benzo[e][1,4]diazepin-4-yl]-3-methyl-butyl ester], the IC50 was in the range of 0.05 to 0.5 µM.

Consider `CC(C)NCc1cccc(C(C(C)C)N2CC(=O)Nc3ccc(Oc4ccc(F)cc4F)cc3C2=O)c1` (stereo not shown) [7-(2,4-difluoro-phenoxy)-4-{1-[3-(isopropylamino-methyl)-phenyl]-2-methyl-propyl}-3,4-dihydro-1H-benzo[e][1,4]diazepine-2,5-dione], for which the IC50 is at most 0.01 µM.

Take `Cc1ccccc1Oc1ccc2c(c1)C(=O)N(C(C(=O)N1CCC(NCCc3ccc(F)cc3)CC1)C(C)C)CCN2C` (stereo not shown) [4-(1-{4-[2-(4-fluoro-phenyl)-ethylamino]-piperidine-1-carbonyl}-2-methyl-propyl)-1-methyl-7-o-tolyloxy-1,2,3,4-tetrahydrobenzo[e][1,4]diazepin-5-one]: the IC50 is 0.01 to 0.05 µM.

`Cc1ccccc1Oc1ccc2ncn(C(C(=O)NC3CCN(Cc4ccccc4)CC3)C(C)C)c(=O)c2c1` (stereo not shown) [N-(1-benzyl-piperidin-4-yl)-3-methyl-2-(4-oxo-6-o-tolyloxy-4H-quinazolin-3-yl)-butyramide]: the IC50 lay in the range of 0.01 to 0.05 µM.

As to `CC(C)[C@H](C(=O)NC1CCN(Cc2ccccc2)CC1)N1CC(=O)Nc2ccc(Oc3ccc(F)cc3)cc2C1=O`, the IC50 was in the range of 0.01 to 0.05 µM.

With `Cc1cc(F)ccc1Oc1ccc2c(c1)C(=O)N(C(C(=O)NC1CCN(Cc3ccccc3)CC1)C(C)C)Cc1ncc(C)n1-2` (stereo not shown) [N-(1-benzyl-piperidin-4-yl)-2-[8-(4-fluoro-2-methyl-phenoxy)-1-methyl-6-oxo-4H,6H-3,5,10b-triaza-benzo[e]azulen-5-yl]-3-methyl-butyramide], the IC50 is at most 0.01 µM.

Consider `CC(C)C(C(=O)N1CCC(NCc2ccc(F)cc2)CC1)N1CCc2ccc(Oc3ccc(F)cc3F)cc2C1=O` (stereo not shown) [7-(2,4-difluoro-phenoxy)-2-{1-[4-(4-fluoro-benzylamino)-piperidine-1-carbonyl]-2-methyl-propyl}-3,4-dihydro-2H-isoquinolin-1-one], for which the IC50 is at most 0.01 µM.

For the compound `O=C1c2cc(Oc3ccc(F)cc3F)ccc2CCN1[C@@H](c1cccc(CNCC(F)F)n1)C1CC1` [(R)-2-(cyclopropyl(6-((2,2-difluoroethylamino)methyl)pyridin-2-yl)methyl)-7-(2,4-difluorophenoxy)-3,4-dihydroisoquinolin-1(2H)-one], the IC50 was at most 0.01 µM.

Turning to `CC(C)C(COC(=O)NC1CCN(Cc2ccc(F)cc2)CC1)N1CC(=O)Nc2ccc(Oc3ccc(F)cc3)cc2C1=O` (stereo not shown) [[1-(4-Fluoro-benzyl)-piperidin-4-yl]-carbamic acid 2-[7-(4-fluoro-phenoxy)-2,5-dioxo-1,2,3,5-tetrahydro-benzo[e][1,4]diazepin-4-yl]-3-methyl-butyl ester], the IC50 is 0.05 to 0.5 µM.

On to `O=C1c2cc(Oc3ccc(F)cc3F)ccc2CCN1[C@@H](c1cccc(CNCC2CC2)n1)C1CC1` [(R)-2-(cyclopropyl(6-((cyclopropylmethylamino)methyl)pyridin-2-yl)methyl)-7-(2,4-difluorophenoxy)-3,4-dihydroisoquinolin-1(2H)-one], for which the IC50 is at most 0.01 µM.

As for `O=C1c2cc(Oc3ccc(F)cc3F)ccc2CCN1[C@@H](c1cccc(CNC2CC2)n1)C1CC1` [(R)-2-(cyclopropyl(6-((cyclopropylamino)methyl)pyridin-2-yl)methyl)-7-(2,4-difluorophenoxy)-3,4-dihydroisoquinolin-1(2H)-one], the IC50 is at most 0.01 µM.

`O=C1c2cc(Oc3ccc(F)cc3F)ccc2CCN1[C@@H](c1cccc(CNCCF)n1)C1CC1` [(R)-2-(cyclopropyl(6-((2-fluoroethylamino)methyl)pyridin-2-yl)methyl)-7-(2,4-difluorophenoxy)-3,4-dihydroisoquinolin-1(2H)-one]: the IC50 is at most 0.01 µM.

`CC(C)C(C(=O)N1CCC(NC2CC2)CC1)N1CCc2ccc(Oc3ccc(F)cc3F)cc2C1=O` (stereo not shown) [2-{1-[4-(cyclopropyl-amino)-piperidine-1-carbonyl]-2-methyl-propyl}-7-(2,4-difluoro-phenoxy)-3,4-dihydro-2H-isoquinolin-1-one]: the concentration for half-maximal inhibition (IC50) is at most 0.01 µM.

As to `CC(C)C(C(=O)N1CCC(NCCc2ccc(F)cc2)CC1)N1CCc2ccc(Oc3ccc(F)cc3F)cc2C1=O` (stereo not shown) [7-(2,4-difluoro-phenoxy)-2-(1-{4-[2-(4-fluoro-phenyl)-ethylamino]-piperidine-1-carbonyl}-2-methyl-propyl)-3,4-dihydro-2H-isoquinolin-1-one], the IC50 was at most 0.01 µM.

For the compound `CC(C)C(C(=O)N1CCC(NC2CC2)CC1)N1CC(=O)Nc2ccc(Oc3ccccc3C(C)(C)C)cc2C1=O` (stereo not shown) [7-(2-tert-butyl-phenoxy)-4-[1-(4-cyclopropylamino-piperidine-1-carbonyl)-2-methyl-propyl]-3,4-dihydro-1H-benzo[e][1,4]diazepine-2,5-dione], the IC50 was in the range of 0.01 to 0.05 µM.

In the case of `CC(C)(CO)NCc1cccc([C@@H](C2CC2)N2CCc3ccc(Oc4ccc(F)cc4F)cc3C2=O)n1` [(R)-2-(cyclopropyl(6-((1-hydroxy-2-methylpropan-2-ylamino)methyl)pyridin-2-yl)methyl)-7-(2,4-difluorophenoxy)-3,4-dihydroisoquinolin-1(2H)-one], the IC50 is at most 0.01 µM.

For `CC(C)C(C(=O)N1CCC(NCCc2ccc(F)cc2)CC1)N1CC(=O)Nc2ccc(Oc3ccccc3C(C)(C)C)cc2C1=O` (stereo not shown) [7-(2-tert-butyl-phenoxy)-4-(1-{4-[2-(4-fluoro-phenyl)-ethylamino]-piperidine-1-carbonyl}-2-methyl-propyl)-3,4-dihydro-1H-benzo[e][1,4]diazepine-2,5-dione], the IC50 was in the range of 0.05 to 0.5 µM.

`CC(C)C(C(=O)N1CCC(NCC2CC2)CC1)N1CCc2ccc(Oc3ccc(F)cc3F)cc2C1=O` (stereo not shown) [2-{1-[4-(cyclopropylmethyl-amino)-piperidine-1-carbonyl]-2-methyl-propyl}-7-(2,4-difluoro-phenoxy)-3,4-dihydro-2H-isoquinolin-1-one]: the half-maximal inhibitory concentration (IC50) is at most 0.01 µM.

Consider `CC(C)C(CCC1CCN(CC2CC2)CC1)N1CCc2ccc(Oc3ccc(F)cc3F)cc2C1=O` (stereo not shown) [2-{1-[2-(1-Cyclopropylmethyl-piperidin-4-yl)-ethyl]-2-methyl-propyl}-7-(2,4-difluoro-phenoxy)-3,4-dihydro-2H-isoquinolin-1-one], for which the IC50 was at most 0.01 µM.

With `CC(C)C(COC1CCN(CC2CC2)CC1)N1CCc2ccc(Oc3ccc(F)cc3F)cc2C1=O` (stereo not shown) [2-[1-(1-cyclopropylmethyl-piperidin-4-yloxymethyl)-2-methyl-propyl]-7-(2,4-difluoro-phenoxy)-3,4-dihydro-2H-isoquinolin-1-one], the IC50 was at most 0.01 µM.

Regarding `C[C@H](CO)NCc1cccc([C@@H](C2CC2)N2CCc3ccc(Oc4ccc(F)cc4F)cc3C2=O)n1` [2-((R)-cyclopropyl(6-(((R)-1-hydroxypropan-2-ylamino)methyl)pyridin-2-yl)methyl)-7-(2,4-difluorophenoxy)-3,4-dihydroisoquinolin-1(2H)-one], the IC50 was at most 0.01 µM.

As to `Cc1ccccc1Oc1ccc2c(c1)C(=O)N([C@@H](C(=O)N1CCC(N[C@@H]3CCc4ccccc43)CC1)C(C)C)CCN2`, the IC50 was at most 0.01 µM.

For `Cc1cccc(C)c1Oc1ccc2c(c1)C(=O)N(C(C(=O)NC1CCN(C3CCc4ccccc43)CC1)C(C)C)CC(=O)N2` (stereo not shown) [2-[7-(2,6-dimethyl-phenoxy)-2,5-dioxo-1,2,3,5-tetrahydro-benzo[e][1,4]diazepin-4-yl]-N-(1-indan-1-yl-piperidin-4-yl)-3-methyl-butyramide], the IC50 was at most 0.01 µM.
